PMC9114115, “Property space mapping of Pseudomonas aeruginosa permeability to small molecules” (Scientific Reports, 2022)
In brackets after ≈: the same amount, converted by molar mass. Several values for one entry are separate records, joined by “and”; a condition that tells them apart may be missing. Equal entries are not always repeated. Where two headings read alike, the source gives them in different places.

Tests used:
P. aeruginosa PΔ3 = test: microbe, parasite or virus in culture; type: cell-based, Pseudomonas aeruginosa; settings: Pseudomonas aeruginosa
Experimental: In all experiments, P. aeruginosa PAO1-Pore (PAO1 attTn7::PLAC-fhuA) and PΔ3-Pore (ΔmexAB ΔmexCD ΔmexXY attTn7::PLAC-fhuA) strains were used[29]. Strains were routinely grown in Luria–Bertani (LB) or MOPS-M9 medium at 37 °C with aeration. MICs shown in Tables 1 and 2 were determined by a two-fold dilution method in LB broth and MOPS-M9 medium, respectively, following the previously described protocol.

P. aeruginosa PAO1-Pore = test: MIC by two-fold dilution, hyperporinated PAO1-Pore; type: cell-based, Pseudomonas aeruginosa; settings: for MIC: Pseudomonas aeruginosa; for MICs: PAO1-Pore, LB broth, Table S2
Summary of the method: (§1)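 Minimum inhibitory concentrations were determined by serial two-fold dilution, in LB broth for one series and MOPS-M9 medium for the other. Bacteria were cultured at 37 °C with aeration.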

[1] = test system: four strains of P. aeruginosa; type: cell-based, Pseudomonas aeruginosa
Experimental: Cells were sub-cultured (50–100 mL) 1:100 in fresh LB broth in two flasks per strain. At OD600 0.3 (~ 1.5 to 2 h of incubation), the expression of the pore was induced with 0.1 mM IPTG (final concentration) in one of the flasks and cells were grown for additional 1 to 1.5 h (OD600 1- 1.5). Cells were collected by centrifugation at room temperature (RT) and washed in PMG Buffer (50 mM KPi, pH 7.0, 1 mM MgSO4, 0.4% glucose, prepared fresh) and concentrated 20x (i.e., 100 mL culture resuspended in 5 ml of PMG Buffer with final OD600 ~ 20–30). Assays were performed in 96-well 1.0 µm Glass Fiber Type B filters plates (Millipore). […]
[…] Filter plates were dried, removed from the vacuum manifold and left in the hood overnight to dry completely.

P. aeruginosa PΔ3-Pore = test: MIC by two-fold dilution, barrierless PΔ3-Pore; type: cell-based, Pseudomonas aeruginosa; settings: for MIC: Pseudomonas aeruginosa; for MICs: P∆3-Pore, Table S2
Summary of the method: as §1

P. aeruginosa PAO1 = test: MIC by two-fold dilution, wild type PAO1; type: cell-based, Pseudomonas aeruginosa; settings: Pseudomonas aeruginosa
Summary of the method: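 Media differed between series: LB or MOPS-M9. Hyperporinated strains express FhuA from PLAC at the attTn7 site, and the efflux-deficient ones are ΔmexAB ΔmexCD ΔmexXY.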

[2] = test system: P. aeruginosa PΔ3-Pore cells; test: LC–MS quantification of intracellular accumulation, PΔ3-Pore; settings: 10-80 µM; for Concentration slopes of accumulation, PΔ3-Pore_1 min: 1 min incubation; for Concentration slopes of accumulation, PΔ3-Pore_40min: 40 min incubation;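 for all read-outs here: slope of accumulation versus external concentration fitted as a line through zero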
Summary of the method: (§2)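 Cells grown in MOPS-M9 (pH 7.2) with 1% glycerol, Pore strains induced with 0.1 mM IPTG, concentrated 10X in spent medium and exposed to 10, 20, 40, 80 µM compound for 1 and 40 min at RT. Filter-collected cells extracted with methanol; compound quantified by positive-ion LC–MS against calibration in PAO1 cell extract, no-cell filter controls.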

P. aeruginosa = settings: sheet "Good" permeators; all listed compounds are good permeators
Experimental: The measured levels of compound accumulation were analyzed using machine learning to determine which features of the compounds are most important for enabling their cellular accumulation and to determine their optimal values. […] To accentuate the permeability aspect, the accumulation slopes in efflux-deficient and hyperporinated strains were normalized to those in the parental PAO1 strain.
To help visualize the data, we performed a principal component (PC) decomposition of the data.

P. aeruginosa PAO1 cells = test: LC–MS quantification of intracellular accumulation, PAO1; settings: 10-80 µM; for Concentration slopes of accumulation, PAO1_1 min: 1 min incubation; for Concentration slopes of accumulation, PAO1_40 min: 40 min incubation;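 for all read-outs here: slope of accumulation versus external concentration fitted as a line through zero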
Summary of the method: as §2

P. aeruginosa PΔ3 cells = settings: 10-80 µM; for Concentration slopes of accumulation, PΔ3_1 min: 1 min incubation; for Concentration slopes of accumulation, PΔ3_40 min: 40 min incubation;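 for all read-outs here: slope of accumulation versus external concentration fitted as a line through zero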
Summary of the method: as §2

[3] = test system: P. aeruginosa PAO1-Pore cells; test: LC–MS quantification of intracellular accumulation, PAO1-Pore; settings: 10-80 µM; for Concentration slopes of accumulation, PAO1-Pore_1 min: 1 min incubation; for Concentration slopes of accumulation, PAO1-Pore_40 min: 40 min incubation;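 for all read-outs here: slope of accumulation versus external concentration fitted as a line through zero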
Summary of the method: as §2

[4] = test system: P. aeruginosa hyperporinated strains; test: Vancomycin susceptibility spot assay on minimal medium; type: cell-based, Pseudomonas aeruginosa; settings: MOPS-M9 medium, in the presence of inducer
Experimental: PAO1-Pore and PΔ3-Pore were grown at 37 °C overnight with shaking at 225 rpm in 50 mM MOPS-M9 (pH 7.2) Minimal Medium supplemented with 1% glycerol[42],[43].

[5] = radioactively labeled compound, four strains, 20 min
[6] = PAO1, LB broth, Table 1, read-out: MIC
[7] = read-out: MICs, P∆3-Pore, MOPS-M9 medium
[8] = PAO1, MOPS-M9 medium, read-out: MICs

| SMILES | MIC (P. aeruginosa PΔ3) | MIC (P. aeruginosa PAO1-Pore; PAO1) | effect of efflux inactivation and hyperporination on accumulation [1, 5] | MIC (P. aeruginosa PΔ3-Pore; PΔ3-Pore, LB broth, Table 1) | MIC (P. aeruginosa PAO1; [6]) | Concentration slopes of accumulation, PΔ3-Pore_1 min [2] | Concentration slopes of accumulation, PΔ3-Pore_40min [2] | MIC (P. aeruginosa PΔ3; read-out: MICs) | Concentration slopes of accumulation, PAO1_1 min (P. aeruginosa PAO1 cells) | Concentration slopes of accumulation, PAO1_40 min (P. aeruginosa PAO1 cells) | Concentration slopes of accumulation, PΔ3_1 min (P. aeruginosa PΔ3 cells) | Concentration slopes of accumulation, PΔ3_40 min (P. aeruginosa PΔ3 cells) | MIC (P. aeruginosa PAO1-Pore; PAO1, read-out: MICs) | MIC (P. aeruginosa PΔ3-Pore; [7]) | Concentration slopes of accumulation, PAO1-Pore_1 min [3] | Concentration slopes of accumulation, PAO1-Pore_40 min [3] | MIC (P. aeruginosa PAO1; [8]) | MICs (P. aeruginosa PAO1-Pore) | MICs (P. aeruginosa PΔ3-Pore; LB broth) | also measured |
| --- | --- | --- | --- | --- | --- | --- | --- | --- | --- | --- | --- | --- | --- | --- | --- | --- | --- | --- | --- | --- |
| CC(C)Nc1cccnc1N1CCN(C(=O)c2cc3cc(NS(C)(=O)=O)ccc3[nH]2)CC1 [Delavirdine] | > 1000 µM | > 1000 µM | equally affected by inactivation of efflux and hyperporination | > 1000 µM | > 1000 µM | – | – | – | – | – | – | – | – | – | – | – | – | – | – | effect of efflux inactivation and hyperporination on accumulation ([1]; radioactively labeled compound, four strains, 20 min, listed as [^3H]-delavirdine): Hyperporination had the strongest effect |
| O=C1Nc2ccc(Cl)cc2[C@@](C#CC2CC2)(C(F)(F)F)O1 [Efavirenz] | > 1000 µM | > 1000 µM | – | 25 µM and 7.89 µg/mL | > 1000 µM | – | – | – | – | – | – | – | – | – | – | – | – | – | – | effect of efflux inactivation and hyperporination on accumulation ([1]; not told): Hyperporination had the strongest effect; MIC (P. aeruginosa PΔ3-Pore; PΔ3-Pore cells): 25000 µM (≈ 7890 µg/mL) |
| COCCc1ccc(OCC(O)CNC(C)C)cc1 (stereo not drawn) [Metoprolol] | > 1000 µM | > 1000 µM | not affected by either of the two barriers | > 1000 µM | > 1000 µM | – | – | – | – | – | – | – | – | – | – | – | – | – | – | – |
| NC(=O)Cc1cccc(C(=O)c2ccccc2)c1N [Nepafenac] | > 1000 µM | > 1000 µM | Hyperporination had the strongest effect | > 1000 µM | – | – | – | – | – | – | – | – | – | – | – | – | – | – | – | MIC (P. aeruginosa PAO1; PAO1): > 1000 µM |
| Cc1cc(C)nc(NS(=O)(=O)c2ccc(N)cc2)n1 [OU-0000689, SULFAMETHAZINE] | – | – | – | – | – | 1.54 | 1.19 | 100 µM and 30 µg/mL | 1.42 | 1.40 | 1.31 | 1.35 | 50 µM and 15 µg/mL | 12.5 µM and 3.75 µg/mL | 1.53 | 1.05 | > 200 µM and > 60.1 µg/mL | – | – | Cluster of the identified "good" permeators (P. aeruginosa): 1 |
| CCn1cc(C(=O)O)c(=O)c2cc(F)c(N3CCNCC3)cc21 [OU-0000789, Norfloxacin] | – | – | – | – | – | 25.07 | 33.05 | 0.625 µM and 0.2 µg/mL | 37.81 | 32.76 | 15.28 | 26.08 | 0.2 µM and 0.06 µg/mL | 0.1 µM and 0.03 µg/mL | 31.44 | 54.56 | 1.25 µM and 0.4 µg/mL | 1 | 0.0156 | Cluster of the identified "good" permeators (P. aeruginosa): 3 |
| O=C(O)c1cn(C2CC2)c2cc(N3CCNCC3)c(F)cc2c1=O [OU-0001036, Ciprofloxacin] | 0.05 µM and 0.02 µg/mL | 0.09 µM and 0.03 µg/mL | inactivation of efflux led to significantly higher levels of accumulation | 0.02 µM and 0.01 µg/mL | 0.19 µM and 0.06 µg/mL | 2.77 | 2.77 | 0.25 µM and 0.08 µg/mL | 1.15 | 2.47 | 2.99 | 1.33 | 0.0625 µM and 0.02 µg/mL | 0.031 µM and 0.01 µg/mL | 3.53 | 3.32 | 1 µM and 0.33 µg/mL | 0.09 | 0.02 | effect of hyperporination on antibacterial activity (P. aeruginosa PAO1-Pore; MIC PAO1 vs PAO1-Pore): two-fold |
| CC(=O)NC[C@H]1CN(c2ccc(N3CCOCC3)c(F)c2)C(=O)O1 [OU-0031508, linezolid] | – | – | – | – | – | 30.83 | 28.73 | 200 µM (≈ 67.5 µg/mL) | 34.71 | 41.30 | 39.20 | 25.30 | 200 µM (≈ 67.5 µg/mL) | 25 µM (≈ 8.43 µg/mL) | 12.71 | 26.51 | > 200 µM and > 67.5 µg/mL | 25 | 12.5 | Cluster of the identified "good" permeators (P. aeruginosa): 3 |
| Cc1cc(C(C)(C)C)c(O)c(C)c1CC1=NCCN1 [Oxymetazoline] | 1000 µM (≈ 260 µg/mL) | > 1000 µM | Efflux inactivation or hyperporination resulted in a similar increase | 1000 µM (≈ 260 µg/mL) | > 1000 µM | – | – | – | – | – | – | – | – | – | – | – | – | – | – | accumulated radioactivity washed out of cells ([1]; PΔ3-Pore cells, 30 min incubation, 0.1 mL wash): 95% |
| CN(C)[C@@H]1C(O)=C(C(N)=O)C(=O)[C@@]2(O)C(O)=C3C(=O)c4c(O)cccc4[C@@](C)(O)[C@H]3C[C@@H]12 [Tetracycline] | 0.78 µM and 0.35 µg/mL | 0.39 µM and 0.17 µg/mL | – | 0.78 µM and 0.35 µg/mL | 12.5 µM and 5.56 µg/mL | – | – | – | – | – | – | – | – | – | – | – | – | 0.39-1.56 | 0.78 | effect of efflux inactivation and hyperporination on accumulation ([1]; not told): equally affected by inactivation of efflux and hyperporination |
| CN[C@H](CC(C)C)C(=O)N[C@H]1C(=O)N[C@@H](CC(N)=O)C(=O)N[C@H]2C(=O)N[C@H]3C(=O)N[C@H](C(=O)N[C@H](C(=O)O)c4cc(O)cc(O)c4-c4cc3ccc4O)[C@H](O)c3ccc(c(Cl)c3)Oc3cc2cc(c3O[C@@H]2O[C@H](CO)[C@@H](O)[C@H](O)[C@H]2O[C@H]2C[C@](C)(N)[C@H](O)[C@H](C)O2)Oc2ccc(cc2Cl)[C@H]1O [vancomycin] | – | – | – | – | – | – | – | – | – | – | – | – | – | – | – | – | – | – | – | susceptibility in spot assay [4]: highly susceptible |
